According to BindingDB's records for doi:10.1074/jbc.M112.442335 (University of Notre Dame, 2013):

Target: T1, Coproheme decarboxylase (Staphylococcus aureus, UniProt Q2YS77)
T1 sequence (Q2YS77 whole entry): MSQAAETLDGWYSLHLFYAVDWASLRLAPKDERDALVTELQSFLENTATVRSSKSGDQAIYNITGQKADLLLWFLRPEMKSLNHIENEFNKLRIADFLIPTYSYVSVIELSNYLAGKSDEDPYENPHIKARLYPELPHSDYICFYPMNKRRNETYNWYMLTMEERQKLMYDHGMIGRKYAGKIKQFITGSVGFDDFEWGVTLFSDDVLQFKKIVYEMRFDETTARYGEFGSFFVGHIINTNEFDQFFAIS
Assay: Fluorescence Titration Assay
Conditions: pH 6.8
Method: Titrations using fluorescence spectroscopy were carried out on a Jobin Yvon Horiba FluoroMax-3 fluorimeter in scanning mode. Apo-HemQ (5 μM) was diluted in 0.1 M potassium phosphate buffer, pH 6.8, and titrated with stocks of heme (1 mM in0.1 M NaOH) and protoporphyrin IX (1 mM in DMSO) each diluted to 500 μM at 25 °C.

With C=Cc1c(C)c2cc3[nH]c(cc4nc(cc5nc(cc1[nH]2)C(C)=C5CCC(=O)O)C(CCC(=O)O)=C4C)c(C)c3C=C as the compound, how does the Kd read?
The Kd was 2.21 µM.
